Test results reported in patent US9695155B2, “Herbicidal substituted pyrimidinyloxy benzene compounds” (E. I. DU PONT DE NEMOURS AND COMPANY, priority 2013, dated 2017).

Columns and labels:
barnyardgrass [1] = assay: Test A preemergence; type: in vivo, Echinochloa crus-galli; settings: for Plant response rating, Barnyardgrass: 0 to 100 scale where 0 is no effect and 100 is complete control
How it was run: (§1)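 Greenhouse pot test, loam/sand soil. Formulation: non-phytotoxic solvent mix plus surfactant. Pre: directed spray onto soil after sowing. Post: plants at 1–2 leaf, 2–10 cm. Rated visually vs untreated controls at ~10 d, 0 (no effect) to 100 (complete control).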

kochia [2] = assay: Test A preemergence; type: in vivo, Kochia scoparia; settings: for Plant response rating, Kochia: 0 to 100 scale where 0 is no effect and 100 is complete control
How it was run: as §1

ragweed [3] = assay: Test A preemergence; type: in vivo, Ambrosia elatior; settings: for Plant response rating, Ragweed: 0 to 100 scale where 0 is no effect and 100 is complete control
How it was run: as §1

Italian ryegrass [4] = assay: Test A preemergence; type: in vivo, Lolium multiflorum; settings: for Plant response rating, Ryegrass, Italian: 0 to 100 scale where 0 is no effect and 100 is complete control
How it was run: as §1

giant foxtail [5] = assay: Test A preemergence; type: in vivo, Setaria faberii; settings: for Plant response rating, Foxtail, Giant: 0 to 100 scale where 0 is no effect and 100 is complete control
How it was run: as §1

pigweed [6] = assay: Test A preemergence; type: in vivo, Amaranthus retroflexus; settings: for Plant response rating, Pigweed: 0 to 100 scale where 0 is no effect and 100 is complete control
How it was run: as §1

barnyardgrass [7] = assay: Test A postemergence; type: in vivo, Echinochloa crus-galli
How it was run: as §1

kochia [8] = assay: Test A postemergence; type: in vivo, Kochia scoparia
How it was run: as §1

ragweed [9] = assay: Test A postemergence; type: in vivo, Ambrosia elatior; settings: for Plant response rating, Ragweed: 0 to 100 scale, 0 no effect, 100 complete control; for Ragweed plant response rating: 0 to 100 scale where 0 is no effect and 100 is complete control
How it was run: as §1

Italian ryegrass [10] = assay: Test A postemergence; type: in vivo, Lolium multiflorum; settings: for Plant response rating, Ryegrass, Italian: 0 to 100 scale, 0 no effect, 100 complete control; for Ryegrass, Italian plant response rating: 0 to 100 scale where 0 is no effect and 100 is complete control
How it was run: as §1

giant foxtail [11] = assay: Test A postemergence; type: in vivo, Setaria faberii
How it was run: as §1

pigweed [12] = assay: Test A postemergence; type: in vivo, Amaranthus retroflexus; settings: for Plant response rating, Pigweed: 0 to 100 scale, 0 no effect, 100 complete control; for Pigweed plant response rating: 0 to 100 scale where 0 is no effect and 100 is complete control
How it was run: as §1

wheat = assay: Test A postemergence; type: in vivo, Triticum aestivum; settings: for Plant response rating, Wheat: 0 to 100 scale, 0 no effect, 100 complete control; for Wheat plant response rating: 0 to 100 scale where 0 is no effect and 100 is complete control
How it was run: as §1

corn = assay: Test A postemergence; type: in vivo, Zea mays
How it was run: as §1

blackgrass = assay: Test A postemergence; type: in vivo, Alopecurus myosuroides
How it was run: as §1

galium = assay: Test A postemergence; type: in vivo, Galium aparine
How it was run: as §1

rice = assay: Test B flooded paddy test; type: in vivo, Oryza sativa; settings: Flood, 250 g ai/ha; 0 to 100 scale where 0 is no effect and 100 is complete control
How it was run: (§2)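 Scores from 0 (no effect) to 100 (complete control) are visual comparisons with controls, taken 13 to 15 days after compound was applied into floodwater 3 cm deep around 2-leaf plants.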

sedge, umbrella = assay: Test B flooded paddy test; type: in vivo, Cyperus difformis; settings: Flood, 250 g ai/ha; 0 to 100 scale where 0 is no effect and 100 is complete control
How it was run: as §2

Heteranthera limosa = assay: Test B flooded paddy test; type: in vivo; settings: Flood, 250 g ai/ha; 0 to 100 scale where 0 is no effect and 100 is complete control
How it was run: as §2

barnyardgrass [13] = assay: Test B flooded paddy test; type: in vivo, Echinochloa crus-galli; settings: Flood, 250 g ai/ha; 0 to 100 scale where 0 is no effect and 100 is complete control
How it was run: as §2

[14] = 31 g ai/ha, visual, approximately 10 days
[15] = 31 g ai/ha, 0 to 100 scale, 0 no effect, 100 complete control
[16] = 125 g ai/ha, 0 to 100 scale, 0 no effect, 100 complete control
[17] = 125 g ai/ha, 0 to 100 scale where 0 is no effect and 100 is complete control
[18] = 1000 g ai/ha, 0 to 100 scale, 0 no effect, 100 complete control, approx. 10 days
[19] = 1000 g ai/ha, 0 to 100 scale, 0 no effect, 100 complete control

SMILES	Plant response rating, Barnyardgrass (barnyardgrass [1]; [14])	Plant response rating, Kochia (kochia [2]; [14])	Plant response rating, Ragweed (ragweed [3]; [14])	Plant response rating, Ryegrass, Italian (Italian ryegrass [4]; [14])	Plant response rating, Foxtail, Giant (giant foxtail [5]; [14])	Plant response rating, Pigweed (pigweed [6]; [14])	Plant response rating, Barnyardgrass (barnyardgrass [7]; [15])	Plant response rating, Kochia (kochia [8]; [15])	Plant response rating, Ragweed (ragweed [9]; 31 g ai/ha)	Plant response rating, Ryegrass, Italian (Italian ryegrass [10]; 31 g ai/ha)	Plant response rating, Foxtail, Giant (giant foxtail [11]; [15])	Plant response rating, Pigweed (pigweed [12]; 31 g ai/ha)	Plant response rating, Wheat (wheat; 31 g ai/ha)	Plant response rating, Corn (corn; [15])	Plant response rating, Blackgrass (blackgrass; [15])	Plant response rating, Galium (galium; [15])	Plant response rating, Rice (rice)	Plant response rating, Sedge, Umbrella (sedge, umbrella)	Plant response rating, Ducksalad (Heteranthera limosa)	Plant response rating, Barnyardgrass (barnyardgrass [13])	also measured
Fc1cccc(Oc2ncc(Cl)cn2)c1-n1cc(-c2ccsc2)nn1 [Compound 277]	0	0	0	0	30	30	20	60	50	30	40	60	0	0	30	100	0	80	80	0	Barnyardgrass plant response rating (0 to 100 scale, 0 is no effect, 100 is complete control) (barnyardgrass [1]; 125 g ai/ha): 0; Kochia plant response rating (0 to 100 scale) (kochia [2]; 125 g ai/ha): 0; Ragweed plant response rating (0 to 100 scale) (ragweed [3]; 125 g ai/ha): 0; Ryegrass, Italian plant response rating (0 to 100 scale) (Italian ryegrass [4]; 125 g ai/ha): 0; Foxtail, Giant plant response rating (0 to 100 scale) (giant foxtail [5]; 125 g ai/ha): 70; Pigweed plant response rating (0 to 100 scale) (pigweed [6]; 125 g ai/ha): 60; Plant response rating, Barnyardgrass (barnyardgrass [7]; [16]): 40; Plant response rating, Kochia (kochia [8]; [16]): 70; Plant response rating, Ragweed (ragweed [9]; 125 g ai/ha): 60; Plant response rating, Ryegrass, Italian (Italian ryegrass [10]; 125 g ai/ha): 50; Plant response rating, Foxtail, Giant (giant foxtail [11]; [16]): 70; Plant response rating, Pigweed (pigweed [12]; 125 g ai/ha): 70; Plant response rating, Wheat (wheat; 125 g ai/ha): 0; Plant response rating, Corn (corn; [16]): 20; Plant response rating, Blackgrass (blackgrass; [16]): 50; Plant response rating, Galium (galium; [16]): 100
CC(C)Oc1cnn(-c2c(Br)cccc2Oc2ncc(Cl)cn2)c1 [Compound 148]	0	0	0	0	10	0	0	0	10	0	10	50	0	0	0	20	0	30	40	0	Plant response rating, Barnyardgrass (barnyardgrass [1]; 125 g ai/ha): 50; Plant response rating, Kochia (kochia [2]; 125 g ai/ha): 0; Plant response rating, Ragweed (ragweed [3]; 125 g ai/ha): 0; Plant response rating, Ryegrass, Italian (Italian ryegrass [4]; 125 g ai/ha): 0; Plant response rating, Foxtail, Giant (giant foxtail [5]; 125 g ai/ha): 70; Plant response rating, Pigweed (pigweed [6]; 125 g ai/ha): 10; Barnyardgrass plant response rating (barnyardgrass [7]; [17]): 30; Kochia plant response rating (kochia [8]; [17]): 30; Ragweed plant response rating (ragweed [9]; 125 g ai/ha): 20; Ryegrass, Italian plant response rating (Italian ryegrass [10]; 125 g ai/ha): 0; Foxtail, Giant plant response rating (giant foxtail [11]; [17]): 40; Pigweed plant response rating (pigweed [12]; 125 g ai/ha): 50; Wheat plant response rating (wheat; 125 g ai/ha): 0; Corn plant response rating (corn; [17]): 20; Blackgrass plant response rating (blackgrass; [17]): 10; Galium plant response rating (galium; [17]): 60
FC(F)(F)COc1cnn(-c2c(Br)cccc2Oc2ncc(Cl)cn2)c1 [Compound 128]	10	0	0	0	60	100	10	50	0	0	20	80	0	0	30	50	0	85	85	0	Plant response rating, Barnyardgrass (barnyardgrass [1]; 125 g ai/ha): 70; Plant response rating, Kochia (kochia [2]; 125 g ai/ha): 70; Plant response rating, Ragweed (ragweed [3]; 125 g ai/ha): 0; Plant response rating, Ryegrass, Italian (Italian ryegrass [4]; 125 g ai/ha): 10; Plant response rating, Foxtail, Giant (giant foxtail [5]; 125 g ai/ha): 100; Plant response rating, Pigweed (pigweed [6]; 125 g ai/ha): 100; Barnyardgrass plant response rating (barnyardgrass [7]; [17]): 50; Kochia plant response rating (kochia [8]; [17]): 80; Ragweed plant response rating (ragweed [9]; 125 g ai/ha): 20; Ryegrass, Italian plant response rating (Italian ryegrass [10]; 125 g ai/ha): 30; Foxtail, Giant plant response rating (giant foxtail [11]; [17]): 60; Pigweed plant response rating (pigweed [12]; 125 g ai/ha): 100; Wheat plant response rating (wheat; 125 g ai/ha): 10; Corn plant response rating (corn; [17]): 30; Blackgrass plant response rating (blackgrass; [17]): 40; Galium plant response rating (galium; [17]): 80
CC(C)Oc1cnn(-c2c(Cl)cccc2Oc2ncc(Cl)cn2)c1 [Compound 103]							0	0	0	0	0	0	0	0	0	0	0	0	0	0	Barnyardgrass plant response rating (0 to 100 scale) (barnyardgrass [1]; 31 g ai/ha): 0; Plant response rating, Barnyardgrass (barnyardgrass [1]; 125 g ai/ha): 0; Kochia plant response rating (0 to 100 scale) (kochia [2]; 31 g ai/ha): 0; Plant response rating, Kochia (kochia [2]; 125 g ai/ha): 0; Ragweed plant response rating (0 to 100 scale) (ragweed [3]; 31 g ai/ha): 0; Plant response rating, Ragweed (ragweed [3]; 125 g ai/ha): 0; Ryegrass, Italian plant response rating (0 to 100 scale) (Italian ryegrass [4]; 31 g ai/ha): 0; Plant response rating, Ryegrass, Italian (Italian ryegrass [4]; 125 g ai/ha): 0; Foxtail, Giant plant response rating (0 to 100 scale) (giant foxtail [5]; 31 g ai/ha): 0; Plant response rating, Foxtail, Giant (giant foxtail [5]; 125 g ai/ha): 0; Pigweed plant response rating (0 to 100 scale) (pigweed [6]; 31 g ai/ha): 0; Plant response rating, Pigweed (pigweed [6]; 125 g ai/ha): 0; Plant response rating, Barnyardgrass (barnyardgrass [7]; [17]): 0; Plant response rating, Kochia (kochia [8]; [17]): 0; Plant response rating, Foxtail, Giant (giant foxtail [11]; [17]): 0; Plant response rating, Corn (corn; [17]): 0; Plant response rating, Blackgrass (blackgrass; [17]): 0; Plant response rating, Galium (galium; [17]): 0
Fc1cccc(Oc2ncc(Cl)cn2)c1-n1ccnn1 [Compound 159]																	0	0	0	0	Barnyardgrass plant response rating (barnyardgrass [1]; [18]): 100; Kochia plant response rating (kochia [2]; [18]): 100; Ragweed plant response rating (ragweed [3]; [18]): 100; Ryegrass, Italian plant response rating (Italian ryegrass [4]; [18]): 30; Foxtail, Giant plant response rating (giant foxtail [5]; [18]): 100; Pigweed plant response rating (pigweed [6]; [18]): 100; Plant response rating, Barnyardgrass (barnyardgrass [7]; [19]): 70; Plant response rating, Kochia (kochia [8]; [19]): 100; Plant response rating, Ragweed (ragweed [9]; 1000 g ai/ha): 80; Plant response rating, Ryegrass, Italian (Italian ryegrass [10]; 1000 g ai/ha): 30; Plant response rating, Foxtail, Giant (giant foxtail [11]; [19]): 90; Plant response rating, Pigweed (pigweed [12]; 1000 g ai/ha): 100; Plant response rating, Wheat (wheat; 1000 g ai/ha): 30; Plant response rating, Corn (corn; [19]): 40; Plant response rating, Blackgrass (blackgrass; [19]): 50; Plant response rating, Galium (galium; [19]): 90
FC(F)c1cccc(Oc2ncc(Cl)cn2)c1-n1cncc1Br [Compound 259]	10	20	10	0	30	70	0	60	50	0	10	70	0	0	20	70	0	75	70	0	Barnyardgrass plant response rating (0 to 100 scale, 0 is no effect, 100 is complete control) (barnyardgrass [1]; 125 g ai/ha): 70; Kochia plant response rating (0 to 100 scale) (kochia [2]; 125 g ai/ha): 80; Ragweed plant response rating (0 to 100 scale) (ragweed [3]; 125 g ai/ha): 70; Ryegrass, Italian plant response rating (0 to 100 scale) (Italian ryegrass [4]; 125 g ai/ha): 0; Foxtail, Giant plant response rating (0 to 100 scale) (giant foxtail [5]; 125 g ai/ha): 100; Pigweed plant response rating (0 to 100 scale) (pigweed [6]; 125 g ai/ha): 100; Plant response rating, Barnyardgrass (barnyardgrass [7]; [16]): 30; Plant response rating, Kochia (kochia [8]; [16]): 80; Plant response rating, Ragweed (ragweed [9]; 125 g ai/ha): 70; Plant response rating, Ryegrass, Italian (Italian ryegrass [10]; 125 g ai/ha): 10; Plant response rating, Foxtail, Giant (giant foxtail [11]; [16]): 40; Plant response rating, Pigweed (pigweed [12]; 125 g ai/ha): 90; Plant response rating, Wheat (wheat; 125 g ai/ha): 0; Plant response rating, Corn (corn; [16]): 10; Plant response rating, Blackgrass (blackgrass; [16]): 50; Plant response rating, Galium (galium; [16]): 80
